Where two headings read alike, the source gives them in different places.
What was measured:
[1] = biological target: P-glycoprotein (P-gp) (Homo sapiens, UniProt P08183); details: cited from earlier work
[2] = cited from earlier work; for compound present in feces, % of the administered dose: oral 14C-abiraterone acetate
[3] = tested on: human plasma proteins, albumin and alpha-1 acid glycoprotein; details: cited from earlier work
[4] = PAMPA permeability; details: comparative in-vitro PAMPA assay
Description: PAMPA permeability measurements were performed as described by M Kansi et al. (Journal of medicinal chemistry, 41, (1998) pp 1007) with modifications based on S. Bendels et al (Pharmaceutical research, 23 (2006) pp 2525). Permeability was measured in a 96-well plate assay across an artificial membrane composed of dodecane with 20% soy lecithin supported by a PVDF membrane (Millipore, USA). The receiver compartment was phosphate buffered saline (pH 7.0) supplemented with 1% sodium dodecyl sulfate. The assay was performed at room temperature; incubation time was 1-24 hours. The concentration in the receiver compartment was determined by UV-VIS spectrophotometry (Thermo Scientific Genesys S10).

[5] = Apparent solubility in distilled water; assay type: physicochemical; details: distillated water, room temperature, 100 nm filter
Description: The samples were dispersed in distillated water and the resulting dispersions were filtered by 100 nm disposable syringe filter. […] The filtrate may contain Abiraterone acetate complex particles which could not be filtrated out using 100 nm pore size filter.

[6] = tested on: serum testosterone and other androgens; details: patients, placebo-controlled phase 3 clinical trial; cited from earlier work
[7] = cited from earlier work
[8] = cited from earlier work; remark: listed apart in the source
[9] = 1,000 mg daily, patients with metastatic CRPC
[10] = high-fat (57% fat, 825 calories) meal
[11] = low-fat meal (7% fat, 300 calories)

Sequence of P-glycoprotein (P-gp) (P08183 whole entry): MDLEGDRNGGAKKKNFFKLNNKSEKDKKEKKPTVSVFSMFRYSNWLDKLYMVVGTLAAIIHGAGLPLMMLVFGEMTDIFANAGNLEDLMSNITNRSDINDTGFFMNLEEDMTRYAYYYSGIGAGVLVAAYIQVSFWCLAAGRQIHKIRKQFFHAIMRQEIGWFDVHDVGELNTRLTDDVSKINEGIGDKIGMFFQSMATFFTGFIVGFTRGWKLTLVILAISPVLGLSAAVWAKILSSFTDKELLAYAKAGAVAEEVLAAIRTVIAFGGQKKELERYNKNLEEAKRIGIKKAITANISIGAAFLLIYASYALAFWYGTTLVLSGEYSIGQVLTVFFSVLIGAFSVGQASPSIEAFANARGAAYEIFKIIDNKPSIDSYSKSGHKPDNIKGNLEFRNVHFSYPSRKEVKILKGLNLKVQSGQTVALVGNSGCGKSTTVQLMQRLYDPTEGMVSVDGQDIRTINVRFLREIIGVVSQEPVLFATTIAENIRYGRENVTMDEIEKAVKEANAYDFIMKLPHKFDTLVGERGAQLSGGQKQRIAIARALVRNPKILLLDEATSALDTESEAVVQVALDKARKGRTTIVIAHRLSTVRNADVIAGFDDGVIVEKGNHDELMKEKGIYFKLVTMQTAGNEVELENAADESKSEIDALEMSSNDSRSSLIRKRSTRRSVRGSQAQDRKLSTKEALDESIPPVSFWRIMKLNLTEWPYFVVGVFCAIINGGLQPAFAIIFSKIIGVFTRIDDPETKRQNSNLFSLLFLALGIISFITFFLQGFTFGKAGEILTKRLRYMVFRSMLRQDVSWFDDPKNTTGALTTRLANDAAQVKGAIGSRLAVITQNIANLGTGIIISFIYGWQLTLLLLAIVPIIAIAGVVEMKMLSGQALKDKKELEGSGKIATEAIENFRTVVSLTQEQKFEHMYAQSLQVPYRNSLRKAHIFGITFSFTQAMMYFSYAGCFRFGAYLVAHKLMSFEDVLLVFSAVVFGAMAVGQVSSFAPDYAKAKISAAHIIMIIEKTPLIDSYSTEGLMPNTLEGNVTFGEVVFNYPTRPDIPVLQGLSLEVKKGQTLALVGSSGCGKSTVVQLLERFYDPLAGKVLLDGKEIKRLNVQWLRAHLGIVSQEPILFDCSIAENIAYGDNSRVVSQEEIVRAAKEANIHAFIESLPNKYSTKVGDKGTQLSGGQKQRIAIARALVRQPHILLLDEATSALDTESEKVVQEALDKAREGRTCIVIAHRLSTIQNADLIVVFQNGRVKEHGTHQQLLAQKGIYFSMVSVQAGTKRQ

In the case of C[C@]12CC[C@H](O)CC1=CC[C@@H]1[C@@H]2CC[C@]2(C)C(c3cccnc3)=CC[C@@H]12 [Abiraterone], the P-gp substrate ([1]; in vitro, clinically relevant concentrations) is listed as “not substrates”, the “compound present in feces, % of the administered dose” value [2] is listed as about 22% and the “bound to human plasma proteins” value [3] is listed as over 99%.

For C[C@]12CC[C@H](OS(=O)(=O)O)CC1=CC[C@@H]1[C@@H]2CC[C@]2(C)C(c3ccc[n+]([O-])c3)=CC[C@@H]12 [N-oxide Abiraterone sulphate], the “share of exposure of circulating metabolite in human plasma” value ([2]; oral 14C-abiraterone acetate capsules) is listed as “about 43%”.

In the case of “(3β)-17-(3-pyridinyl) androsta-5,16-dien-3-yl acetate [Abiraterone acetate]”, the PAMPA permeability [4] is reported as “below 0.1*10^−6 cm/s” and the Apparent solubility [5] is reported as under 4 µg/mL.

For CC(=O)O[C@H]1CC[C@@]2(C)C(=CC[C@@H]3[C@@H]2CC[C@]2(C)C(c4cccnc4)=CC[C@@H]32)C1 [Abiraterone acetate, (3β)-17-(3-pyridinyl) androsta-5,16-dien-3-yl acetate], the “Effect on serum testosterone and other androgens” value [6] is listed as “decreased”, the “steady-state AUC (mean±SD)” value [7, 9] is listed as 0.993 ± 0.639 µg·h/mL and the “steady-state Cmax (mean±SD)” value [7, 9] is listed as 0.226 ± 0.178 µg/mL. For the same compound, the “Abiraterone acetate plasma concentrations” value ([7]; below detectable levels in >99% of the analyzed samples) was under 0.2 ng/mL, the “increase in the mean AUC when dose doubled” value ([7]; dose doubled from 1,000 to 2,000 mg) was 8% and the “Abiraterone AUC0-∞ higher with food” value [7, 10] was about 10 fold. For the same compound, the “Abiraterone Cmax higher with food” value [7, 10] was “approximately 17 fold”, the “Abiraterone AUC0-∞ higher with food” value [7, 11] was about 5 fold and the “Abiraterone Cmax higher with food” value [7, 11] was “approximately 7 fold”. The “median time to reach maximum plasma Abiraterone concentrations” value ([7]; oral, patients with metastatic CRPC) was 2 h, the “Abiraterone AUC0-∞ (exposure) increase (positive food effect)” value ([7]; single dose) was at most 10 fold and the “Abiraterone Cmax increase (positive food effect)” value ([7]; single dose) was “up to 17 fold”. For the same compound, the “Abiraterone accumulation: steady-state AUC compared to a single 1,000 mg dose” value ([7]; steady-state) was 2 fold, the P-gp inhibition ([1]; not told) was “inhibitor” and the P-gp substrate ([1]; not told) was “not substrates”. The “compound present in feces, % of the administered dose” value [2] was “approximately 55%” and the Solubility in water [8] was “practically insoluble”.
